m = 2'-O-methyl; r = 2'-OH (RNA)
Target: T1, TLR9 (Homo sapiens, UniProt Q9NR96)
T1 construct: these experiments were repeated in human PBMC cultures; endogenous in cells; host or cells: primary human PBMCs
T1 sequence (Q9NR96 26-1032): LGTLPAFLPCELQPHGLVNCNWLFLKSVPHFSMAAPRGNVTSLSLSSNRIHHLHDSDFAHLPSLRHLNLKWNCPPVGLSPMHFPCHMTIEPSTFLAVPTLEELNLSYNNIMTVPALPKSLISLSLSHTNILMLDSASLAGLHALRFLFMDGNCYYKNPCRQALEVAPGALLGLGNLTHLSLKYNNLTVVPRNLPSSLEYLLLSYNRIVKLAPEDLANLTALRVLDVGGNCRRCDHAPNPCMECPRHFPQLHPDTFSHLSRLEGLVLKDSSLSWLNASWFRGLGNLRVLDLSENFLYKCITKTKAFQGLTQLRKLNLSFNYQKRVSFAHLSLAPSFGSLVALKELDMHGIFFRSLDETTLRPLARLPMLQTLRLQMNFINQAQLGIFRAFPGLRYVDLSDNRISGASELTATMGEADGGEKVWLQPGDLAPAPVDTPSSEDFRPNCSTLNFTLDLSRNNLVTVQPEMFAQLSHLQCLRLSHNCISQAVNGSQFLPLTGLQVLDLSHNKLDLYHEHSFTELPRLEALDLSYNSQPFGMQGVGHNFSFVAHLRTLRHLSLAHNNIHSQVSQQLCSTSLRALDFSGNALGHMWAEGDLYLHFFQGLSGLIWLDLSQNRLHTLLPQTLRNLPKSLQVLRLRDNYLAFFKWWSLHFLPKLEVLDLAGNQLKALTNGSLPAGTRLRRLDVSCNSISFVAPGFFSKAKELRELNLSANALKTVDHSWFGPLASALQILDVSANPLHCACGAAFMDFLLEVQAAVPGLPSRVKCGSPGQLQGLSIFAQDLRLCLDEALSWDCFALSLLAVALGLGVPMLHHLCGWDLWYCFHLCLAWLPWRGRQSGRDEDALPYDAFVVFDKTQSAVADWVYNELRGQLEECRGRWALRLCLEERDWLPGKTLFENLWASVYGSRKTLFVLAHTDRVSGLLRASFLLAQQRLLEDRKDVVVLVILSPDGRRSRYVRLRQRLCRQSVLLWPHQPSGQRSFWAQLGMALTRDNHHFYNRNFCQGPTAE
Assay: CpG ODN (TLR9 agonist)-induced cytokine production in human PBMCs
Assay type: cell-based
Method: All RNA molecules used in this study were heated at 90° C. for 3 min. and then placed at 37° C. for 60 min. Non-denaturing PAGE analysis on a 20% polyacrylamide gel was performed to confirm that ssRNA molecules were intact and that no duplexes had formed upon heating. The RNA molecules were encapsulated in a SNALP formulation comprising PEG-cDMA:DLinDMA:cholesterol:DSPC in a 2:40:48:10 mol % ratio (2:40 SNALP), prepared using a syringe press process.
Fresh human peripheral blood mononuclear cells (PBMCs) were isolated and seeded at about 3×10^5 cells/well in a total volume of 180 μl. Next, 20 μl of the appropriate SNALP diluted in PBS or 10 μl of naked TLR agonist were added to the PBMCs. For time course experiments, PBMCs were pretreated with UmodS ssRNA or a control and the appropriate naked TLR agonist was added at 0, 0.5, or 2 hours after pretreatment. When the SNALP and naked TLR agonist were added separately, the SNALP was added first followed by the naked TLR agonist. At t=24 hr., the cell supernatant was harvested and IFN-α and/or IL-6 levels were determined using ELISA.
Lipid Encapsulation of RNA and ODN. RNA or ODN were encapsulated in liposomes by a process of spontaneous vesicle formation as described in Judge et al., supra, and Jeffs et al., Pharm. […]
Cytokine ELISA. All cytokines were quantified using sandwich ELISA kits according to the manufacturer's instructions. […]

## Luc UmodS: Luc sense strand ssRNA with 2′OMe at uridines: GAmUmUAmUGmUCCGGmUmUAmUGmUAUU (sense GAUUAUGUCCGGUUAUGUAUU; sugars from the 5' end rrmmrmrmrrrrmmrmrmrrr, backbone not given here)
Human PBMCs pretreated with SNALP-encapsulated ssRNA
  IL-6 levels induced by naked ODN2006 (TLR9 agonist, phosphorothioate CpG Type B): no reduction
Human PBMCs, SNALP-encapsulated ssRNA plus naked ODN
  level of IFN-α induced by naked ODN2216 (TLR9 agonist, phosphorothioate CpG Type A): increased
